Test results: ChEMBL document CHEMBL3045271, “Synthesis and insecticidal activity of new phosphoramidates” (2012)

How the values were obtained:
Format in all cases: functional
Plutella xylostella [1] = assay: Insecticidal activity against second-instar larvae of Plutella xylostella (diamondback moth) assessed as mortality at compound administered topically at 1 ug/mg insect measured after 24 hr
Plutella xylostella [2] = assay: Insecticidal activity against second-instar larvae of Plutella xylostella (diamondback moth) assessed as mortality at compound administered topically at 1 ug/mg insect measured after 72 hr
Ascia monuste [3] = assay: Insecticidal activity against second-instar larvae of Ascia monuste assessed as mortality at compound administered topically at 1 ug/mg insect measured after 24 hr
Ascia monuste [4] = assay: Insecticidal activity against second-instar larvae of Ascia monuste assessed as mortality at compound administered topically at 1 ug/mg insect measured after 72 hr
Diaphania hyalinata [5] = assay: Insecticidal activity against second-instar larvae of Diaphania hyalinata assessed as mortality at compound administered topically at 1 ug/mg insect measured after 48 hr
Plutella xylostella [6] = assay: Insecticidal activity against second-instar larvae of Plutella xylostella (diamondback moth) assessed as mortality at compound administered topically at 1 ug/mg insect measured after 48 hr
Diaphania hyalinata [7] = assay: Insecticidal activity against second-instar larvae of Diaphania hyalinata assessed as mortality at compound administered topically at 1 ug/mg insect measured after 24 hr
Diaphania hyalinata [8] = assay: Insecticidal activity against second-instar larvae of Diaphania hyalinata assessed as mortality at compound administered topically at 1 ug/mg insect measured after 72 hr
Ascia monuste [9] = assay: Insecticidal activity against second-instar larvae of Ascia monuste assessed as mortality at compound administered topically at 1 ug/mg insect measured after 48 hr

Compound	mortality (Plutella xylostella [1]) [%]	mortality (Plutella xylostella [2]) [%]	mortality (Ascia monuste [3]) [%]	mortality (Ascia monuste [4]) [%]	mortality (Diaphania hyalinata [5]) [%]	mortality (Plutella xylostella [6]) [%]	mortality (Diaphania hyalinata [7]) [%]	mortality (Diaphania hyalinata [8]) [%]	mortality (Ascia monuste [9]) [%]
Cc1ccc(CC2=CCOC2=O)cc1	12.5	25	5	17.5	10	17.5	10	12.5	12.5
O=P(Oc1ccco1)(N1CCCCC1)N1CCCCC1	5	20	70	75	7.5	10	7.5	10	75
CCN(CC)P(=O)(Oc1occc1Cc1ccccc1Cl)N(CC)CC	20	45	5	5	10	32.5	10	10	5
CCN(CC)P(=O)(Oc1occc1Cc1ccccc1)N(CC)CC	25	45	22.5	25	5	30	5	5	27.5
CCN(CC)P(=O)(Oc1ccco1)Oc1ccco1	17.5	30	62.5	67.5	55	20	55	70	65
CCN(CC)P(=O)(Oc1ccco1)N(CC)CC	7.5	22.5	2.5	12.5	22.5	10	22.5	25	10
CCN(CC)P(=O)(Oc1occc1Cc1ccccc1F)N(CC)CC	12.5	35	22.5	32.5	23.3	22.5	23.3	23.3	27.5
CCN(CC)P(=O)(Oc1occc1Cc1cccc(Cl)c1)N(CC)CC	5	37.5	0	12.5	12.5	22.5	12.5	12.5	7.5
CCN(CC)P(=O)(Oc1occc1Cc1cccc(F)c1)N(CC)CC	30	52.5	5	15	23.3	42.5	23.3	36.6	17.5
CCN(CC)P(=O)(Oc1occc1Cc1ccc(Br)cc1)N(CC)CC	7.5	32.5	2.5	7.5	27.5	20	27.5	35	5
O=P(Oc1ccco1)(Oc1ccco1)N1CCCCC1	5	10	87.5	90	7.5	5	7.5	17.5	87.5
COP(=S)(OC)Oc1nc(Cl)c(Cl)cc1Cl [CHLORPYRIFOS-METHYL]	100	100	100	100	100	100	100	100	100
CCN(CC)P(=O)(Oc1occc1Cc1cccc(C)c1)N(CC)CC	22.5	45	7.5	12.5	15	40	15	15	12.5
CCN(CC)P(=O)(Oc1occc1Cc1ccc(C)cc1)N(CC)CC	20	32.5	5	17.5	25	25	25	30	15
O=P(NC1CCCCC1)(NC1CCCCC1)Oc1ccco1	2.5	12.5	70	70	2.5	7.5	2.5	10	70
CCN(CC)P(=O)(Oc1occc1Cc1c(C)cccc1Cl)N(CC)CC	5.3	37.5	5	20	20	20	20	20	15
O=C1C=CCO1 [FURAN-2(5H)-ONE]	27.5	32.5	12.5	25	18.9	27.5	18.9	24.3	22.5
CCN(CC)P(=O)(Oc1occc1Cc1cccc(Br)c1)N(CC)CC	27.5	47.5	2.5	10	25	32.5	25	27.5	7.5
